Source: paper PMC10367051, “Comprehensive Mechanistic View of the Hydrolysis of Oxadiazole-Based Inhibitors by Histone Deacetylase 6 (HDAC6)” (ACS Chemical Biology, 2023)
Numbering of substitutions follows the chain as printed.

Columns and labels:
Assay type in all cases: biochemical
HDAC1 = target: T1, HDAC1 (Homo sapiens, UniProt Q13547); experiment: Fluorometric HDAC inhibition assay, HDAC1; details: purified human protein; Ac-Gly-Ala-[Lys-Ac]-AMC substrate 10 μM; 15 min preincubation
T1 construct: made in house; host or cells: HEK293/T17
Method: (§1) Large-scale expression of recombinant human HDACs was carried out as described previously.[32],[37] Briefly, HEK293/T17 cells were transiently transfected with expression pMM222 plasmids comprising N-terminally tagged (TwinStrep-FLAG-HALO tag; Figure S1) HDAC genes using linear poly(ethyleneimine) (PEI, Polysciences Inc.). Cells were harvested three days post-transfection, and cell pellets were resuspended in the lysis buffer (100 mM Tris-HCl, 10 mM NaCl, 5 mM KCl, 2 mM MgCl2, and 10% glycerol at pH 8.0). Cells were disrupted by sonication, cell lysates were cleared by centrifugation, and soluble fusion proteins were first purified by Streptactin affinity chromatography (IBA). For all HDACs but HDACs 1, 10, and 11, the N-terminal tag was cleaved off overnight by the addition of TEV protease (10:1 HDAC/TEV ratio). Size-exclusion chromatography on a Superose 6 column (GE Healthcare Bio-Sciences; running buffer 30 mM HEPES, 140 mM NaCl, 10 mM KCl, 3% glycerol, and 0.25 mM TCEP) was used as the final purification step for all HDAC constructs.
(§2) Optimized fluorometric assays were used to determine inhibition constants of studied compounds against individual HDAC isoforms as described previously.[32] Briefly, reactions were performed in the activity buffer comprising 50 mM HEPES, 140 mM NaCl, and 10 mM KCl at pH 7.4 supplemented with 1 mg mL^–1 bovine serum albumin (BSA), 1 mM tris(2-carboxyethyl)phosphine (TCEP), 10 μM substrates, and optimized concentrations of HDACs. The Ac-Gly-Ala-[Lys-Ac]-7-amino-methylcoumarylamide (AMC) substrate was used to profile HDACs 1, 2, 3, and 6; Boc-[Lys-TFA]-7-amino-methylcoumarylamide was used for HDACs 4, 5, 7, 8, and 9 (both substrates: Bachem); fluorescein-labeled N8-acetylspermidine was used for HDAC10;[32] and an internally quenched TNFα-derived peptide derivative was used for HDAC11.[39] Deacetylation reactions were monitored either by high-performance liquid chromatography (HPLC) (HDAC10) or by quantification of released AMC (λex/λem = 365/440 nm) using a CLARIOstar plate reader (BMG Labtech GmbH).

HDAC2 = target: T2, HDAC2 (Homo sapiens, UniProt Q92769); experiment: Fluorometric HDAC inhibition assay, HDAC2; details: purified human protein; Ac-Gly-Ala-[Lys-Ac]-AMC substrate 10 μM; 15 min preincubation
T2 construct: TwinStrep-FLAG-HALO (N, cleaved yes); made in house; host or cells: HEK293/T17
Method: as §1, §2

HDAC3 = target: T3, HDAC3 (Homo sapiens, UniProt O15379); experiment: Fluorometric HDAC inhibition assay, HDAC3; details: purified human protein; Ac-Gly-Ala-[Lys-Ac]-AMC substrate 10 μM; 15 min preincubation
T3 construct: TwinStrep-FLAG-HALO (N, cleaved yes); made in house; host or cells: HEK293/T17
Method: as §1, §2

HDAC4 = target: T4, HDAC4 (Homo sapiens, UniProt P56524); experiment: Fluorometric HDAC inhibition assay, HDAC4; details: purified human protein; Boc-[Lys-TFA]-AMC substrate 10 μM; 15 min preincubation
T4 construct: TwinStrep-FLAG-HALO (N, cleaved yes); made in house; host or cells: HEK293/T17
Method: as §1, §2

HDAC5 = target: T5, HDAC5 (Homo sapiens, UniProt Q9UQL6); experiment: Fluorometric HDAC inhibition assay, HDAC5; details: purified human protein; Boc-[Lys-TFA]-AMC substrate 10 μM; 15 min preincubation
T5 construct: TwinStrep-FLAG-HALO (N, cleaved yes); made in house; host or cells: HEK293/T17
Method: as §1, §2

zHDAC6 (Y745F) = target: T6, zHDAC6 (Y745F) (Danio rerio, UniProt F8W4B7, Y745F); experiment: Inhibition assay, zebrafish HDAC6 catalytic DD2 domain, Y745F mutant
T6 construct: Danio rerio HDAC6 (amino acids 440–798; zHDAC6); His (N, cleaved yes); MBP (N, cleaved yes); made in house; host or cells: RIPL Escherichia coli
T6 sequence (F8W4B7 440-798 Y745F): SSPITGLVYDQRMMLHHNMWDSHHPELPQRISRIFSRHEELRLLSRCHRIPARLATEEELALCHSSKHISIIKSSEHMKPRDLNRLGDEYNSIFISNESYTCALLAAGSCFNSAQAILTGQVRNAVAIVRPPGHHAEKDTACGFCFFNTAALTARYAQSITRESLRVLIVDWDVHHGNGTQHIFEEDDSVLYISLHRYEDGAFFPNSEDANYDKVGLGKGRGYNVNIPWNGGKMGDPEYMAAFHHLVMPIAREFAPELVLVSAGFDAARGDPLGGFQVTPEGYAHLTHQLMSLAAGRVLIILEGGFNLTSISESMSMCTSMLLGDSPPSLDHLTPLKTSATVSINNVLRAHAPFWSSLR
Method: (§3) The second catalytic domain of Danio rerio HDAC6 (amino acids 440–798; zHDAC6) was expressed in RIPL Escherichia coli as described previously using the pEC566-zHDAC6 expression vector.[16],[38] Briefly, bacteria were incubated at 37 °C with shaking (250 rpm) until the optical density reached an OD600 = 0.5. Then, the culture was cooled to 18 °C for 1 h, and recombinant protein expression was induced by the addition of 75 μM isopropyl β-D-1-thiogalactopyranoside together with 200 μM ZnSO4. The culture was grown at 18 °C for an additional 18 h and harvested by centrifugation at 5500g for 15 min. The cell pellet was resuspended in the lysis buffer (50 mM phosphate, 300 mM NaCl, 10% glycerol, and 20 mM imidazole at pH 8; 5 mL g^–1 bacterial pellet) and lysed by three passages through EmulsiFlex (Avestin). Cell lysates were centrifuged (15,000g at 4 °C for 20 min), and the fusion protein in the supernatant was purified via Ni-NTA chromatography. Fractions containing the His-MBP-HDAC6 fusion were concentrated to 2 mg mL^–1 and cleaved overnight by the addition of TEV protease (zHDAC6/TEV 1:20 ratio). The cleaved tag and the TEV protease were sequentially removed using amylose (New England Biolabs) and HisTrap columns (Cytiva), and zHDAC6 was further purified by size-exclusion chromatography on a HiLoad Superdex 75 pg column (GE Healthcare Bio-Sciences). Fractions containing zHDAC6 were pooled, concentrated to 10 mg mL^–1, flash-frozen in liquid nitrogen, and stored at −80 °C. The purity of protein preparations was monitored by SDS-PAGE (Figure S2).
The zHDAC6 mutants (Y745F and H574A) were constructed using the Quick-change site-directed mutagenesis protocol with the pEC566-zHDAC6 expression plasmid as a template. Both mutants were expressed and purified as described above for wild-type zHDAC6 (Figure S2).
as §2

zHDAC6 (WT) = target: T7, zHDAC6 (WT) (Danio rerio, UniProt F8W4B7); experiment: Inhibition assay, zebrafish HDAC6 catalytic DD2 domain, wild type
T7 construct: Danio rerio HDAC6 (amino acids 440–798; zHDAC6); His (N, cleaved yes); MBP (N, cleaved yes); made in house; host or cells: RIPL Escherichia coli
T7 sequence (F8W4B7 440-798): T6 sequence (F8W4B7 440-798 Y745F) with F306Y
Method: as §3, with “Fractions containing the His-MBP-HDAC6 fusion were concentrated to 2 mg mL^–1 and cleaved overnight by the addition of TEV protease (zHDAC6/TEV 1:20 ratio). The cleaved tag and the TEV protease were sequentially removed using amylose (New England Biolabs) and HisTrap columns (Cytiva), and zHDAC6 was further purified by size-exclusion chromatography on a HiLoad Superdex 75 pg column (GE Healthcare Bio-Sciences). Fractions containing zHDAC6 were pooled, concentrated to 10 mg mL^–1, flash-frozen in liquid nitrogen, and stored at −80 °C.” left out
Optimized fluorometric assays were used to determine inhibition constants of studied compounds against individual HDAC isoforms as described previously.[32] […] Deacetylation reactions were monitored either by high-performance liquid chromatography (HPLC) (HDAC10) or by quantification of released AMC (λex/λem = 365/440 nm) using a CLARIOstar plate reader (BMG Labtech GmbH).

T1 sequence (Q13547 whole entry): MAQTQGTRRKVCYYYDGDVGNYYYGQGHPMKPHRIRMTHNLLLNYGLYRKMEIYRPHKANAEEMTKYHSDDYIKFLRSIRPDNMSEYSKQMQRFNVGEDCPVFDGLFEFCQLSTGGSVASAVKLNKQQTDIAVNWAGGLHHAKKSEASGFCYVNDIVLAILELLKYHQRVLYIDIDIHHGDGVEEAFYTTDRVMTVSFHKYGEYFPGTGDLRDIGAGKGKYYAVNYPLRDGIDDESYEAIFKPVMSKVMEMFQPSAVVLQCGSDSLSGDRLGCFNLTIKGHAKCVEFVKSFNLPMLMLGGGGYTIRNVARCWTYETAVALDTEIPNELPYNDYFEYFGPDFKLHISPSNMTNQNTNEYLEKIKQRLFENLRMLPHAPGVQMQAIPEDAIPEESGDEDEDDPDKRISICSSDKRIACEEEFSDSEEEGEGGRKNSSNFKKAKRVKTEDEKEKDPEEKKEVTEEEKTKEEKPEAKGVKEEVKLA
T5 sequence (Q9UQL6 whole entry): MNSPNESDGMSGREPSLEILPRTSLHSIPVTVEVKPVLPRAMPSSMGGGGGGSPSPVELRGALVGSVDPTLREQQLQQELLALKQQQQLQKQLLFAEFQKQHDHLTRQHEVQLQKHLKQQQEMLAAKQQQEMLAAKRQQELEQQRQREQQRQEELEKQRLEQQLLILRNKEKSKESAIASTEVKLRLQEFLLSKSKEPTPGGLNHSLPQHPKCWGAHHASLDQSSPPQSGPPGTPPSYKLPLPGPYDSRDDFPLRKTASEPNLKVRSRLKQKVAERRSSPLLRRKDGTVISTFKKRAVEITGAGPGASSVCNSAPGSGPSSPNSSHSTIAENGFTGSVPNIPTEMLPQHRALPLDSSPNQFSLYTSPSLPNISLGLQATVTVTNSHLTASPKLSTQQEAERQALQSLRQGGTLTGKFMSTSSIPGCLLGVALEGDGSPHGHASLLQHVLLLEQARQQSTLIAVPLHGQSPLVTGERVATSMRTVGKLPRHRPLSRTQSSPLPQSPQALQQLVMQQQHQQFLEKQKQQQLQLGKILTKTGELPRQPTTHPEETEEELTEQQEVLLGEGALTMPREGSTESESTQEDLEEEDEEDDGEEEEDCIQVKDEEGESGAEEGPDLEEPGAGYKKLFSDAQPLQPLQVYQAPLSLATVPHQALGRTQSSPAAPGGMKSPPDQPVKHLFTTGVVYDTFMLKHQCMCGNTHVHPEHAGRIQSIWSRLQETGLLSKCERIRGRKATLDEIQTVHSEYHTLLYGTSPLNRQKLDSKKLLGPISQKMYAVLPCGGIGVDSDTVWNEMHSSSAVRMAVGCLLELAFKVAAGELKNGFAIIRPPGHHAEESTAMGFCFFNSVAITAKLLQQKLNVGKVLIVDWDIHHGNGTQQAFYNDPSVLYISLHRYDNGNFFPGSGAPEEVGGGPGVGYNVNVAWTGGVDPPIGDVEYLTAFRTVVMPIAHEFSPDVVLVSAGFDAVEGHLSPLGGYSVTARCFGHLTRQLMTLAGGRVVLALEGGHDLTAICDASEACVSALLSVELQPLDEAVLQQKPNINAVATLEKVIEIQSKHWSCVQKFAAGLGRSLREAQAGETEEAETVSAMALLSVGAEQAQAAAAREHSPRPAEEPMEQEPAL
T4 sequence (P56524 whole entry): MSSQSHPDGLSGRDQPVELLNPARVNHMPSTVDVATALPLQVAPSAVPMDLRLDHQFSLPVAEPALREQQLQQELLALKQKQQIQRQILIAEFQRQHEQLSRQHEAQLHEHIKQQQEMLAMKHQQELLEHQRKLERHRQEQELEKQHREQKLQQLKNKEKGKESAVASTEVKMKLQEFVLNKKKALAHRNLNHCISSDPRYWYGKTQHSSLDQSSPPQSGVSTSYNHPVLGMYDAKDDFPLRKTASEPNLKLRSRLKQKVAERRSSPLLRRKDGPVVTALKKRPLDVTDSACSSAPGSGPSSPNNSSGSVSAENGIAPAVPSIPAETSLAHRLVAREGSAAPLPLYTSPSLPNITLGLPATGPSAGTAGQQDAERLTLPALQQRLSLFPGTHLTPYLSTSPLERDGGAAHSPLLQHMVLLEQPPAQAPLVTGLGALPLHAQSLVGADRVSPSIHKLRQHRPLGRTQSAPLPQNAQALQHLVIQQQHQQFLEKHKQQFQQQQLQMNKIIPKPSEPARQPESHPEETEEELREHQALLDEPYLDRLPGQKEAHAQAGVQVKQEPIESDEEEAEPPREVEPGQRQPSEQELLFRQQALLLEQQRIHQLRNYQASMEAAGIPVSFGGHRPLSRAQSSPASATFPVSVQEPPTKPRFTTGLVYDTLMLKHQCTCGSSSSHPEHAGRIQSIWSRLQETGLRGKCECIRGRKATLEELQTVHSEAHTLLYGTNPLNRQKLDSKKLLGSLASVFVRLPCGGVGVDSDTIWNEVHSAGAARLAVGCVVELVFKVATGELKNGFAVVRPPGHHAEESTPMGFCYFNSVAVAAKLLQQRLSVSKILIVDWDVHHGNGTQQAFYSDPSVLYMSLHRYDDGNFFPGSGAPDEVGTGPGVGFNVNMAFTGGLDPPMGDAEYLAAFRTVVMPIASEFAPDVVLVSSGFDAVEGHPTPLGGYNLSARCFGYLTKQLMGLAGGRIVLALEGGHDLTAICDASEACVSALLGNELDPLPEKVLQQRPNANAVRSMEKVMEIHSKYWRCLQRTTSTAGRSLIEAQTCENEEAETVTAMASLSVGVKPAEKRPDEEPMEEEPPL
T2 sequence (Q92769 whole entry): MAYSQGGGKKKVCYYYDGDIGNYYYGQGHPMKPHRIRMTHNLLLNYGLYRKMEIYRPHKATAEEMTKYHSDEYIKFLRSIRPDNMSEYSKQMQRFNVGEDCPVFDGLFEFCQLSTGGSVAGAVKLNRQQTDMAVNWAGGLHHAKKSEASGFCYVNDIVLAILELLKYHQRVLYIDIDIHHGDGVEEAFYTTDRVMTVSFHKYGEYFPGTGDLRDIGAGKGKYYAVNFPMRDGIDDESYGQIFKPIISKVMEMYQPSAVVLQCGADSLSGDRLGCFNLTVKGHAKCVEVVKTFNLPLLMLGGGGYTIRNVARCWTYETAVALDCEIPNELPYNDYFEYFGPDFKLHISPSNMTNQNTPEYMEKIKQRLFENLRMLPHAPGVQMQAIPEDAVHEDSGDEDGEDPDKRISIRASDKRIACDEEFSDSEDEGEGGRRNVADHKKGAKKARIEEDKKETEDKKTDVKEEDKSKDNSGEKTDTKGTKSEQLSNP
T3 sequence (O15379 whole entry): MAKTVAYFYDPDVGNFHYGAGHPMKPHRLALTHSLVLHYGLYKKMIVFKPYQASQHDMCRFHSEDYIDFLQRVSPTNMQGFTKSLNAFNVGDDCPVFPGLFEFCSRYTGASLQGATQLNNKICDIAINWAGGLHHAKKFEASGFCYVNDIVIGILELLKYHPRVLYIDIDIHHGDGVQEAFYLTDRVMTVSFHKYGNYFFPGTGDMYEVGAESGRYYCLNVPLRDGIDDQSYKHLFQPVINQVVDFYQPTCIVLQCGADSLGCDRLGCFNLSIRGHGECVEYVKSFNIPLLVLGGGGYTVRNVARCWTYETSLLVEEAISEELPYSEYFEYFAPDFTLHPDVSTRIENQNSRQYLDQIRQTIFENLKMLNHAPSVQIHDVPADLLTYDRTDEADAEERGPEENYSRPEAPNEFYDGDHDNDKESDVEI
T3 sequence (Q9Y618 389-480 partner limits assumed): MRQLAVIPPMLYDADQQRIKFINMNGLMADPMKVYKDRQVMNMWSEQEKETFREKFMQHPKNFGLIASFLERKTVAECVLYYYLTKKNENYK

Structure (SMILES) | IC50 (HDAC1) [µM] | IC50 (HDAC2) [µM] | IC50 (HDAC3) [µM] | IC50 (HDAC4) [µM] | IC50 (HDAC5) [µM] | IC50 (zHDAC6 (Y745F)) [nM] | IC50 (zHDAC6 (WT)) [µM]
CS(=O)(=O)N(Cc1ccc(-c2nnc(C(F)F)o2)cn1)c1cccc(Cl)c1 [compound 8] | > 20 | > 20 | > 20 | > 20 | > 20 | 75 ± 26 | 
CS(=O)(=O)N(Cc1ccc(C(=O)NN)cn1)c1cccc(Cl)c1 [compound 4] | > 20 | > 20 | > 20 | > 20 | > 20 | > 50000 | 3.87 ± 1.64
CS(=O)(=O)N(Cc1ccc(C(=O)NNC(=O)C(F)F)cn1)c1cccc(Cl)c1 [compound 6] | > 20 |  |  | > 20 |  | > 50000 | 41.7

Further lines, results first:

IC50 (HDAC1) [µM] | IC50 (HDAC2) [µM] | IC50 (HDAC3) [µM] | IC50 (HDAC4) [µM] | IC50 (HDAC5) [µM] | IC50 (zHDAC6 (Y745F)) [nM] | IC50 (zHDAC6 (WT)) [µM] | Structure (SMILES)
> 20 | 17.4 | > 20 | > 20 | > 20 | 311 ± 150 |  | CS(=O)(=O)N(Cc1ccc(-c2nnc(C(F)(F)F)o2)cn1)c1cccc(Cl)c1 [compound 7]
9.17 | > 20 |  | > 20 |  | > 20000 |  | CS(=O)(=O)N(Cc1ccc(C(=O)NNC(=O)C(F)(F)F)cn1)c1cccc(Cl)c1 [compound 5]
